Key:
[1] = Swelling/induration and histopathology after continuous subcutaneous infusion (Example 1); type: in vivo, Yucatan minipigs; details: for microscopic changes at infused site: pH 4.6
Excerpt: The pharmaceutical compositions were citrate buffered at pH 4.6 where most, but not all, of the LDEE is in the salt form, i.e., there is also some free base.

[2] = Skin symptoms and behavior after subcutaneous LDEE infusion (Example 7); type: in vivo, minipigs
[3] = Infusion site reactions, intermittent subcutaneous infusion of 200 mg/mL LDEE pH 4.5 (Example 2); type: in vivo, minipigs
Excerpt: Each infusion site was spaced a minimum of 2.5 inches (6.3 cm) apart from any other infusion site.
In all cases, the infusion site reaction constituted a swelling of 0.5-4.0 cm diameter, typically 0.5-1.5 cm.

[4] = Infusion site reactions, continuous subcutaneous infusion of 100 mg/mL LDEE pH 3.7 (Example 5); type: in vivo, minipigs; details: for Fraction of sites with a reaction (firmness): pH 3.7, 100 mg/mL (0.44M) LDEE, continuous s.c. 8 h, 280 mg per site, N = 15 infusions
Method: The 5.6 mL volume was divided between two simultaneously infused sites, each site receiving 2.8 mL, i.e., 280 mg LDEE. At each site the flow rate was 0.35 mL/hour, i.e. 35 mg LDEE/hour was infused. The number of sites infused on the first day totaled in the four minipigs 8, and was 7 on the 8th day, because of dislodgement of a cannula from one site. The total number of infused sites was 15.

[5] = Infusion site reactions, subcutaneous infusion of 50 mg/mL LDEE pH 3.7 (Example 6); details: for # of Infusion Site Reactions/# of Infusion Sites: pH 3.7, 50 mg/mL
Method: Over the course of two consecutive days, four 6-12 week old juvenile minipigs weighing about 6-13 kg were each administered 18 subcutaneous infusions of LDEE pharmaceutical compositions at pH 3.7 (LDEE.HCl, pH adjusted with trisodium citrate). […] Intermittent and continuously infused doses of 137.5-140 mg (0.61-0.62 millimoles) were administered over 8 hours, and intermittent doses of 275 mg (1.22 millimoles) were administered over 16 hours (calculated mass of LDEE in its freebase form).
Each infusion site was spaced a minimum of 2 inches (5 cm) apart from any other infusion site. All minipigs received seven doses of oral carbidopa, 25 mg/dose: one dose at 12 hours prior to the infusion on the first day; 3 doses on the first day of infusion; and 3 doses on the second day of infusion.

[6] = Infusion site reactions, intermittent and continuous subcutaneous infusion of 100 mg/mL LDEE pH 4.5 (Example 3); type: in vivo, minipigs
Excerpt: There were four treatment groups:
A: Six infusions, intermittent with ibuprofen.
B: Six infusions, intermittent with no ibuprofen.
C: Six infusions, continuous infusion with ibuprofen.
D: Six infusions, continuous infusion with no ibuprofen.

CCOC(=O)[C@@H](N)Cc1ccc(O)c(O)c1 [LDEE, levodopa ethyl ester]
swelling/induration of infused sites ([1]; 1,142 mg LDEE over 16 hours continuous s.c., 326 mg/mL and 220 mg/mL, citrate buffered pH 4.6): Most, but not all, of the infused sites were swollen and/or developed firm indurations
microscopic changes at infused site ([1]; one month after infusion of 328 mg LDEE/mL (1.45 M)): mild to moderate granulomatous inflammation of the panniculus
microscopic changes at infused site ([1]; one week after infusion of 220 mg LDEE per mL (0.98 M)): mild thrombus formation in the blood vessels of the panniculus, with minimal hemorrhage and subacute inflammation
microscopic changes at infused site ([1]; three weeks after infusion of 220 mg LDEE per mL (0.98 M), minipig A): minimal hemorrhage of the dermis and panniculus
microscopic changes at infused site ([1]; three weeks after infusion of 220 mg LDEE per mL (0.98 M), minipig B): mild granulomatous inflammation
behavior of the minipigs ([2]; LDEE dose rate raising plasma LD above 10,000 ng/mL, even above 15,000 ng/mL): did not result in a readily observable change in the behavior of the minipigs
diameter of slightly raised swelling at infused site ([2]; minipig D only, 7 days after first infusion and again after end of 8th day reinfusion, 560 mg LDEE 100 mg/mL pH 3.7): about 1 cm
diameter of swelling (infusion site reaction) ([3]; 200 mg/mL (0.89 M) LDEE pH 4.5, 140 mg, intermittent s.c., typically 0.5-1.5 cm): 0.5-4.0 cm
rate of small granuloma formation ([3]; 200 mg/mL (0.89M) LDEE pH 4.5, 140 mg, 14 days post-infusion): 33%
infusion site reactions ([3]; 200 mg/mL (0.89 M) LDEE pH 4.5, 14-15 days post-infusion): 8 out of 24
diameter of reactions (slightly raised and firm) ([4]; 100 mg/mL (0.44 M) LDEE pH 3.7, continuous s.c. 8 h, 0.35 mL/hour per site): about 1 cm
fraction of sites with reactions ([4]; 100 mg/mL (0.44 M) LDEE pH 3.7, dose divided between two continuously infused sites): 1/15
Fraction of sites with a reaction (firmness) ([4]; 0 hrs after end of infusion): 0.067
Fraction of sites with a reaction (firmness) ([4]; 12 hrs after end of infusion): 0.067
Fraction of sites with a reaction (firmness) ([4]; 24 hrs after end of infusion): 0.067
Fraction of sites with a reaction (firmness) ([4]; 3 days after end of infusion): 0.067
Fraction of sites with a reaction (firmness) ([4]; 7 days after end of infusion): 0.067
Fraction of sites with a reaction (firmness) ([4]; 14 days after end of infusion): 0
tolerability of infused volume per site ([5]; 50 mg/mL LDEE pH 3.7, about 0.34 mL per hour per site): well tolerated
# of Infusion Site Reactions/# of Infusion Sites ([5]; 137.5 mg, 8 hrs, Intermittent s.c., 0 hrs): 0/8
# of Infusion Site Reactions/# of Infusion Sites ([5]; 137.5 mg, 8 hrs, Intermittent s.c., 12 hrs): 0/8
# of Infusion Site Reactions/# of Infusion Sites ([5]; 137.5 mg, 8 hrs, Intermittent s.c., 24 hrs): 0/8
# of Infusion Site Reactions/# of Infusion Sites ([5]; 137.5 mg, 8 hrs, Intermittent s.c., 3 days): 3/8
# of Infusion Site Reactions/# of Infusion Sites ([5]; 140 mg, 8 hrs, Continuous s.c., 0 hrs): 0/4
# of Infusion Site Reactions/# of Infusion Sites ([5]; 140 mg, 8 hrs, Continuous s.c., 12 hrs): 0/4
# of Infusion Site Reactions/# of Infusion Sites ([5]; 140 mg, 8 hrs, Continuous s.c., 24 hrs): 0/4
# of Infusion Site Reactions/# of Infusion Sites ([5]; 140 mg, 8 hrs, Continuous s.c., 3 days): 0/4
# of Infusion Site Reactions/# of Infusion Sites ([5]; 275 mg, 16 hrs, Intermittent s.c., 0 hrs): 0/6
# of Infusion Site Reactions/# of Infusion Sites ([5]; 275 mg, 16 hrs, Intermittent s.c., 12 hrs): 0/6
# of Infusion Site Reactions/# of Infusion Sites ([5]; 275 mg, 16 hrs, Intermittent s.c., 24 hrs): 1/6
# of Infusion Site Reactions/# of Infusion Sites ([5]; 275 mg, 16 hrs, Intermittent s.c., 3 days): 1/6
diameter of firm swelling (infusion site reaction) ([6]; 100 mg/mL (0.44 M) LDEE pH 4.5, 281 mg over 16 h s.c.): 0.5-1.5 cm
# of Infusion Site Reactions/# of Infusion Sites ([6]; 100 mg/mL (0.44 M) LDEE pH 4.5, 281 mg over 16 h s.c., Treatment A intermittent with ibuprofen, 3 Days Post-Infusion): 2/6
# of Infusion Site Reactions/# of Infusion Sites ([6]; 100 mg/mL (0.44 M) LDEE pH 4.5, 281 mg over 16 h s.c., Treatment A intermittent with ibuprofen, 10 Days Post-Infusion): 5/6
# of Infusion Site Reactions/# of Infusion Sites ([6]; 100 mg/mL (0.44 M) LDEE pH 4.5, 281 mg over 16 h s.c., Treatment A intermittent with ibuprofen, 15 Days Post-Infusion): 0/6
# of Infusion Site Reactions/# of Infusion Sites ([6]; 100 mg/mL (0.44 M) LDEE pH 4.5, 281 mg over 16 h s.c., Treatment A intermittent with ibuprofen, Immediately Post-Infusion): 0/6
# of Infusion Site Reactions/# of Infusion Sites ([6]; 100 mg/mL (0.44 M) LDEE pH 4.5, 281 mg over 16 h s.c., Treatment B intermittent, no ibuprofen, 3 Days Post-Infusion): 1/6
# of Infusion Site Reactions/# of Infusion Sites ([6]; 100 mg/mL (0.44 M) LDEE pH 4.5, 281 mg over 16 h s.c., Treatment B intermittent, no ibuprofen, 10 Days Post-Infusion): 1/6
# of Infusion Site Reactions/# of Infusion Sites ([6]; 100 mg/mL (0.44 M) LDEE pH 4.5, 281 mg over 16 h s.c., Treatment B intermittent, no ibuprofen, 15 Days Post-Infusion): 0/6
# of Infusion Site Reactions/# of Infusion Sites ([6]; 100 mg/mL (0.44 M) LDEE pH 4.5, 281 mg over 16 h s.c., Treatment B intermittent, no ibuprofen, Immediately Post-Infusion): 0/6
# of Infusion Site Reactions/# of Infusion Sites ([6]; 100 mg/mL (0.44 M) LDEE pH 4.5, 281 mg over 16 h s.c., Treatment C continuous with ibuprofen, 3 Days Post-Infusion): 2/6
# of Infusion Site Reactions/# of Infusion Sites ([6]; 100 mg/mL (0.44 M) LDEE pH 4.5, 281 mg over 16 h s.c., Treatment C continuous with ibuprofen, 10 Days Post-Infusion): 6/6
# of Infusion Site Reactions/# of Infusion Sites ([6]; 100 mg/mL (0.44 M) LDEE pH 4.5, 281 mg over 16 h s.c., Treatment C continuous with ibuprofen, 15 Days Post-Infusion): 0/6
# of Infusion Site Reactions/# of Infusion Sites ([6]; 100 mg/mL (0.44 M) LDEE pH 4.5, 281 mg over 16 h s.c., Treatment C continuous with ibuprofen, Immediately Post-Infusion): 0/6
# of Infusion Site Reactions/# of Infusion Sites ([6]; 100 mg/mL (0.44 M) LDEE pH 4.5, 281 mg over 16 h s.c., Treatment D continuous, no ibuprofen, 3 Days Post-Infusion): 4/6
# of Infusion Site Reactions/# of Infusion Sites ([6]; 100 mg/mL (0.44 M) LDEE pH 4.5, 281 mg over 16 h s.c., Treatment D continuous, no ibuprofen, 10 Days Post-Infusion): 1/6
# of Infusion Site Reactions/# of Infusion Sites ([6]; 100 mg/mL (0.44 M) LDEE pH 4.5, 281 mg over 16 h s.c., Treatment D continuous, no ibuprofen, 15 Days Post-Infusion): 0/6
# of Infusion Site Reactions/# of Infusion Sites ([6]; 100 mg/mL (0.44 M) LDEE pH 4.5, 281 mg over 16 h s.c., Treatment D continuous, no ibuprofen, Immediately Post-Infusion): 0/6
infusion site reactions, all treatments pooled ([6]; 100 mg/mL (0.44 M) LDEE pH 4.5, 14-15 days post-infusion): 0 out of 24
granuloma formation ([6]; 281 mg LDEE in 100 mg/mL (0.44 M), pH 4.5, 24 out of 24 infusions): no granuloma formation

— US20150217046A1, “DOSING REGIMENS FOR SUBCUTANEOUSLY INFUSIBLE ACIDIC COMPOSITIONS” (SynAgile Corporation, priority 2012, published 2015)
